ChEMBL document CHEMBL1201861, “Genomics of Drug Sensitity in Cancer screening data, Wellcome Trust Sanger Institute”

Columns and labels:
Assay in all cases: cells
COR-L88 = assay type: functional, cell-based; details: Homo sapiens;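 note: growth inhibition of COR-L88 cells, read out with a cell viability assay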
Description: SANGER: Inhibition of human COR-L88 cell growth in a cell viability assay.

CTB-1 = assay type: functional, cell-based; details: Homo sapiens
Description: SANGER: Inhibition of human CTB-1 cell growth in a cell viability assay.

CTV-1 = assay type: functional, cell-based; details: Homo sapiens;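 note: growth inhibition of the cell line, read out with a cell viability assay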
Description: SANGER: Inhibition of human CTV-1 cell growth in a cell viability assay.

CaR-1 = assay type: functional, cell-based, Homo sapiens; details: Homo sapiens, CaR-1;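 note: growth inhibition of human CaR-1 cancer cells, read out with a cell viability assay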
Description: SANGER: Inhibition of human CaR-1 cell growth in a cell viability assay.

ChaGo-K-1 = assay type: functional, cell-based; details: Homo sapiens;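 note: growth inhibition of ChaGo-K-1 cells, read out with a cell viability assay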
Description: SANGER: Inhibition of human ChaGo-K-1 cell growth in a cell viability assay.

EGI-1 = assay type: functional, cell-based, Homo sapiens; details: Homo sapiens, EGI-1;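 note: cell viability readout used to gauge growth inhibition of EGI-1 cells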
Description: SANGER: Inhibition of human EGI-1 cell growth in a cell viability assay.

G-401 = assay type: functional, cell-based, Homo sapiens; details: Homo sapiens, G-401
Description: SANGER: Inhibition of human G-401 cell growth in a cell viability assay.

HCC1806 = assay type: functional, cell-based, Homo sapiens; details: Homo sapiens, HCC1806;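 note: growth inhibition of the cancer cell line, determined with a cell viability assay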
Description: SANGER: Inhibition of human HCC1806 cell growth in a cell viability assay.

HCC 2998 = assay type: functional, cell-based, Homo sapiens; details: Homo sapiens, HCC 2998;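 note: growth inhibition of human HCC2998 cells, measured with a cell viability read-out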
Description: SANGER: Inhibition of human HCC2998 cell growth in a cell viability assay.

HT1197 = assay type: functional, cell-based, Homo sapiens, HT-1197; details: Homo sapiens, HT1197
Description: SANGER: Inhibition of human HT-1197 cell growth in a cell viability assay.

HT-1376 = assay type: functional, cell-based, Homo sapiens; details: Homo sapiens, HT-1376
Description: SANGER: Inhibition of human HT-1376 cell growth in a cell viability assay.

HuCCT-1 = assay type: functional, cell-based, Homo sapiens, HuCCT1; details: Homo sapiens, HuCCT-1;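 note: growth inhibition of HuCCT-1 cells, read out by a cell viability assay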
Description: SANGER: Inhibition of human HuCCT1 cell growth in a cell viability assay.

Huh-7 = assay type: functional, cell-based, Homo sapiens; details: Homo sapiens, Huh-7;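 note: HuH-7 cell growth inhibition, read out with a cell viability assay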
Description: SANGER: Inhibition of human HuH-7 cell growth in a cell viability assay.

KE-37 = assay type: functional, cell-based; details: Homo sapiens;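 note: growth inhibition of KE-37 cells, read out with a cell viability assay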
Description: SANGER: Inhibition of human KE-37 cell growth in a cell viability assay.

KGN = assay type: functional, cell-based, Homo sapiens; details: Homo sapiens, KGN;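 note: growth inhibition of KGN cells, read out with a cell viability assay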
Description: SANGER: Inhibition of human KGN cell growth in a cell viability assay.

KM12 = assay type: functional, cell-based, Homo sapiens; details: Homo sapiens, KM12;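 note: KM12 cell growth inhibition, read out with a cell viability assay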
Description: SANGER: Inhibition of human KM12 cell growth in a cell viability assay.

KNS-81-FD = assay type: functional, cell-based, Homo sapiens; details: Homo sapiens, KNS-81-FD;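 note: growth inhibition of KNS-81-FD cells, read out with a cell viability assay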
Description: SANGER: Inhibition of human KNS-81-FD cell growth in a cell viability assay.

KYSE-140 = assay type: functional, cell-based, Homo sapiens; details: Homo sapiens, KYSE-140;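 note: cell viability assay measuring growth inhibition in human KYSE-140 cells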
Description: SANGER: Inhibition of human KYSE-140 cell growth in a cell viability assay.

LCLC-103H cell line = assay type: functional, cell-based, Homo sapiens; details: Homo sapiens, LCLC-103H
Description: SANGER: Inhibition of human LCLC-103H cell growth in a cell viability assay.

LU-99A = assay type: functional, cell-based, Homo sapiens; details: Homo sapiens, LU-99A;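 note: growth inhibition of LU-99A cells, read out with a cell viability assay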
Description: SANGER: Inhibition of human LU-99A cell growth in a cell viability assay.

MC116 = assay type: functional, cell-based; details: Homo sapiens;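 note: growth inhibition of MC116 cells, read out with a cell viability assay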
Description: SANGER: Inhibition of human MC116 cell growth in a cell viability assay.

MDA-MB-415 = assay type: functional, cell-based; details: Homo sapiens
NB12 = assay type: functional, cell-based, Homo sapiens; details: Homo sapiens, NB12;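 note: growth inhibition of human NB12 cells, read out by a cell viability assay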
Description: SANGER: Inhibition of human NB12 cell growth in a cell viability assay.

NB69 = assay type: functional, cell-based, Homo sapiens; details: Homo sapiens, NB69;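 note: growth inhibition of NB69 cells, determined by a cell viability assay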
Description: SANGER: Inhibition of human NB69 cell growth in a cell viability assay.

NCI-H1563 = assay type: functional, cell-based, Homo sapiens; details: Homo sapiens, NCI-H1563;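 note: growth inhibition of human NCI-H1563 cells, read out with a cell viability assay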
Description: SANGER: Inhibition of human NCI-H1563 cell growth in a cell viability assay.

NCI-H1693 = assay type: functional, cell-based, Homo sapiens; details: Homo sapiens, NCI-H1693;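 note: growth inhibition of the human cell line, read out with a cell viability assay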
Description: SANGER: Inhibition of human NCI-H1693 cell growth in a cell viability assay.

NCI-H1755 = assay type: functional, cell-based, Homo sapiens; details: Homo sapiens, NCI-H1755;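 note: cell viability readout used to measure growth inhibition of NCI-H1755 cells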
Description: SANGER: Inhibition of human NCI-H1755 cell growth in a cell viability assay.

NCI-H1993 = assay type: functional, cell-based, Homo sapiens; details: Homo sapiens, NCI-H1993;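 note: growth inhibition of the cancer cell line, assessed with a cell viability assay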
Description: SANGER: Inhibition of human NCI-H1993 cell growth in a cell viability assay.

NCI-H23 = assay type: functional, cell-based, Homo sapiens; details: Homo sapiens, NCI-H23
Description: SANGER: Inhibition of human NCI-H23 cell growth in a cell viability assay.

NCI-H2342 = assay type: functional, cell-based; details: Homo sapiens;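 note: growth inhibition of the cancer cell line, determined with a cell viability assay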
Description: SANGER: Inhibition of human NCI-H2342 cell growth in a cell viability assay.

NCI-H650 = assay type: functional, cell-based, Homo sapiens; details: Homo sapiens, NCI-H650;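 note: growth inhibition of NCI-H650 cells, read out by a viability assay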
Description: SANGER: Inhibition of human NCI-H650 cell growth in a cell viability assay.

OAW-28 = assay type: functional, cell-based, Homo sapiens; details: Homo sapiens, OAW-28;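 note: growth inhibition of OAW-28 cells, read out with a cell viability assay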
Description: SANGER: Inhibition of human OAW-28 cell growth in a cell viability assay.

OAW-42 = assay type: functional, cell-based, Homo sapiens; details: Homo sapiens, OAW-42;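 note: growth inhibition of OAW-42 cells, read out with a cell viability assay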
Description: SANGER: Inhibition of human OAW-42 cell growth in a cell viability assay.

PSN1 = assay type: functional, cell-based, Homo sapiens; details: Homo sapiens, PSN1;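 note: suppression of growth of human PSN1 cells, read out by a cell viability assay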
Description: SANGER: Inhibition of human PSN1 cell growth in a cell viability assay.

SBC-5 = assay type: functional, cell-based, Homo sapiens; details: Homo sapiens, SBC-5;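 note: cell viability assay read-out, IC50 is the concentration that inhibits growth of the cells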
Description: SANGER: Inhibition of human SBC-5 cell growth in a cell viability assay.

SCC-15 = assay type: functional, cell-based, Homo sapiens; details: Homo sapiens, SCC-15;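 note: growth inhibition of SCC-15 cells, read out with a cell viability assay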
Description: SANGER: Inhibition of human SCC-15 cell growth in a cell viability assay.

SHP77 = assay type: functional, cell-based, Homo sapiens, SHP-77; details: Homo sapiens, SHP77;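 note: growth inhibition of human SHP-77 cells measured by a cell viability assay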
Description: SANGER: Inhibition of human SHP-77 cell growth in a cell viability assay.

SJSA-1 = assay type: functional, cell-based, Homo sapiens; details: Homo sapiens, SJSA-1;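 note: growth inhibition of human SJSA-1 cells, read out through a cell viability measurement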
Description: SANGER: Inhibition of human SJSA-1 cell growth in a cell viability assay.

8505C = assay type: functional, cell-based, Homo sapiens; details: Homo sapiens, 8505C
Description: SANGER: Inhibition of human 8505C cell growth in a cell viability assay.

A101D = assay type: functional, cell-based, Homo sapiens; details: Homo sapiens, A101D;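 note: growth inhibition of the cell line, measured with a viability assay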
Description: SANGER: Inhibition of human A101D cell growth in a cell viability assay.

A 172 = assay type: functional, cell-based, Homo sapiens; details: Homo sapiens, A 172;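 note: growth inhibition of A172 cells, measured with a cell viability readout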
Description: SANGER: Inhibition of human A172 cell growth in a cell viability assay.

A498 = assay type: functional, cell-based, Homo sapiens; details: Homo sapiens, A498;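 note: growth inhibition of human A498 cells, read out with a cell viability assay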
Description: SANGER: Inhibition of human A498 cell growth in a cell viability assay.

A673 = assay type: functional, cell-based, Homo sapiens; details: Homo sapiens, A673;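 note: growth inhibition of human A673 cells, read out through a cell viability assay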
Description: SANGER: Inhibition of human A673 cell growth in a cell viability assay.

ABC-1 = assay type: functional, cell-based, Homo sapiens; details: Homo sapiens, ABC-1;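 note: growth inhibition of human ABC-1 cells, read out by a cell viability assay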
Description: SANGER: Inhibition of human ABC-1 cell growth in a cell viability assay.

BV-173 = assay type: functional, cell-based; details: Homo sapiens
Description: SANGER: Inhibition of human BV-173 cell growth in a cell viability assay.

C8166 = assay type: functional, cell-based; details: Homo sapiens;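 note: growth inhibition of human C8166 cells measured by a cell viability assay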
Description: SANGER: Inhibition of human C8166 cell growth in a cell viability assay.

CAL-33 = assay type: functional, cell-based, Homo sapiens; details: Homo sapiens, CAL-33;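 note: growth inhibition of CAL-33 cells, read out with a cell viability assay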
Description: SANGER: Inhibition of human CAL-33 cell growth in a cell viability assay.

CAL-72 = assay type: functional, cell-based, Homo sapiens; details: Homo sapiens, CAL-72;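 note: cell viability assay measuring inhibition of proliferation in the CAL-72 cell line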
Description: SANGER: Inhibition of human CAL-72 cell growth in a cell viability assay.

WM-115 = assay type: functional, cell-based, Homo sapiens; details: Homo sapiens, WM-115
Description: SANGER: Inhibition of human WM-115 cell growth in a cell viability assay.

COLO-668 = assay type: functional, cell-based, Homo sapiens; details: Homo sapiens, COLO-668
Description: SANGER: Inhibition of human COLO-668 cell growth in a cell viability assay.

**Q.** Which results are given for `Cn1cncc1[C@@](N)(c1ccc(Cl)cc1)c1ccc2c(c1)c(-c1cccc(Cl)c1)cc(=O)n2C` [TIPIFARNIB]?
**A.** IC50 (COR-L88): > 16000 nM; IC50 (CTB-1): 7810 nM; IC50 (CTV-1): 4580 nM; IC50 (CaR-1): > 16000 nM; IC50 (ChaGo-K-1): 1750 nM; IC50 (EGI-1): 11600 nM; IC50 (G-401): 503 nM; IC50 (HCC1806): 11900 nM; IC50 (HCC 2998): 384 nM; IC50 (HT1197): 11700 nM; IC50 (HT-1376): 11600 nM; IC50 (HuCCT-1): 4310 nM; IC50 (Huh-7): 6050 nM; IC50 (KE-37): 2320 nM; IC50 (KGN): 452 nM; IC50 (KM12): 117 nM; IC50 (KNS-81-FD): 11200 nM; IC50 (KYSE-140): 1110 nM; IC50 (LCLC-103H cell line): 129 nM; IC50 (LU-99A): 7090 nM; IC50 (MC116): 4030 nM; IC50 (MDA-MB-415): 14200 nM; IC50 (NB12): 7990 nM; IC50 (NB69): > 16000 nM; IC50 (NCI-H1563): > 16000 nM; IC50 (NCI-H1693): > 16000 nM; IC50 (NCI-H1755): > 16000 nM; IC50 (NCI-H1993): > 16000 nM; IC50 (NCI-H23): > 16000 nM; IC50 (NCI-H2342): 380 nM; IC50 (NCI-H650): 773 nM; IC50 (OAW-28): > 16000 nM; IC50 (OAW-42): 956 nM; IC50 (PSN1): 1110 nM; IC50 (SBC-5): 2810 nM; IC50 (SCC-15): 10800 nM; IC50 (SHP77): 9940 nM; IC50 (SJSA-1): > 16000 nM; IC50 (8505C): 431 nM; IC50 (A101D): 1870 nM; IC50 (A 172): 10100 nM; IC50 (A498): > 16000 nM; IC50 (A673): 15300 nM; IC50 (ABC-1): 3210 nM; IC50 (BV-173): 2380 nM; IC50 (C8166): > 16000 nM; IC50 (CAL-33): 3680 nM; IC50 (CAL-72): 4950 nM; IC50 (WM-115): > 16000 nM; IC50 (COLO-668): 3390 nM

**Q.** For `CCC1=C[C@@H]2CN(C1)Cc1c([nH]c3ccccc13)[C@@](C(=O)OC)(c1cc3c(cc1OC)N(C)[C@H]1[C@@](O)(C(=O)OC)[C@H](OC(C)=O)[C@]4(CC)C=CCN5CC[C@]31[C@@H]54)C2` [VINORELBINE], which IC50 (COR-L88) is on record?
**A.** The IC50 was 34.8 nM.

**Q.** What about the IC50 (CTB-1) of the same compound?
**A.** Its IC50 is 19.8 nM.

**Q.** And the IC50 (CTV-1)?
**A.** The IC50 was 5.01 nM.

**Q.** And the IC50 (CaR-1)?
**A.** Its IC50 is 59.1 nM.

**Q.** What about the IC50 (ChaGo-K-1) of the same compound?
**A.** The IC50 was 6.69 nM.

**Q.** What about the IC50 (EGI-1) of the same compound?
**A.** Its IC50 is greater than 64 nM.

**Q.** What about the IC50 (G-401) of the same compound?
**A.** The IC50 was 7.87 nM.

**Q.** What about the IC50 (HCC1806) of the same compound?
**A.** The IC50 was 23.9 nM.

**Q.** And the IC50 (HCC 2998)?
**A.** The IC50 was 5.05 nM.

**Q.** And the IC50 (HT1197)?
**A.** Its IC50 is greater than 64 nM.

**Q.** And the IC50 (HT-1376)?
**A.** Its IC50 is 31.5 nM.

**Q.** And the IC50 (HuCCT-1)?
**A.** Its IC50 is 2.78 nM.

**Q.** And the IC50 (Huh-7)?
**A.** Its IC50 is 29.6 nM.

**Q.** And the IC50 (KE-37)?
**A.** Its IC50 is 4.42 nM.

**Q.** What about the IC50 (KGN) of the same compound?
**A.** Its IC50 is 7.05 nM.

**Q.** What about the IC50 (KM12) of the same compound?
**A.** Its IC50 is 2.61 nM.

**Q.** What about the IC50 (KNS-81-FD) of the same compound?
**A.** Its IC50 is greater than 64 nM.

**Q.** What about the IC50 (KYSE-140) of the same compound?
**A.** Its IC50 is 23.8 nM.

**Q.** And the IC50 (LCLC-103H cell line)?
**A.** The IC50 was 1.43 nM.

**Q.** What about the IC50 (LU-99A) of the same compound?
**A.** The IC50 was 6.24 nM.

**Q.** What about the IC50 (MC116) of the same compound?
**A.** The IC50 was 15.5 nM.

**Q.** And the IC50 (MDA-MB-415)?
**A.** The IC50 was 24.1 nM.

**Q.** And the IC50 (NB12)?
**A.** The IC50 was 2.11 nM.

**Q.** What about the IC50 (NB69) of the same compound?
**A.** The IC50 was 45.5 nM.

**Q.** And the IC50 (NCI-H1563)?
**A.** Its IC50 is 12.8 nM.

**Q.** And the IC50 (NCI-H1693)?
**A.** The IC50 was greater than 64 nM.

**Q.** And the IC50 (NCI-H1755)?
**A.** Its IC50 is 17.4 nM.

**Q.** And the IC50 (NCI-H1993)?
**A.** Its IC50 is greater than 64 nM.

**Q.** And the IC50 (NCI-H23)?
**A.** Its IC50 is 60.1 nM.

**Q.** And the IC50 (NCI-H2342)?
**A.** The IC50 was 4.78 nM.

**Q.** What about the IC50 (NCI-H650) of the same compound?
**A.** Its IC50 is 16.1 nM.

**Q.** And the IC50 (OAW-28)?
**A.** Its IC50 is 15.2 nM.

**Q.** What about the IC50 (OAW-42) of the same compound?
**A.** The IC50 was 42.5 nM.

**Q.** And the IC50 (PSN1)?
**A.** The IC50 was greater than 64 nM.

**Q.** What about the IC50 (SBC-5) of the same compound?
**A.** Its IC50 is 2.08 nM.

**Q.** What about the IC50 (SCC-15) of the same compound?
**A.** Its IC50 is 8.7 nM.

**Q.** What about the IC50 (SHP77) of the same compound?
**A.** Its IC50 is greater than 64 nM.

**Q.** And the IC50 (SJSA-1)?
**A.** The IC50 was 12.6 nM.

**Q.** What about the IC50 (8505C) of the same compound?
**A.** The IC50 was 4.42 nM.

**Q.** What about the IC50 (A101D) of the same compound?
**A.** The IC50 was 8.67 nM.

**Q.** And the IC50 (A 172)?
**A.** The IC50 was 13.9 nM.

**Q.** What about the IC50 (A498) of the same compound?
**A.** The IC50 was 26.2 nM.

**Q.** What about the IC50 (A673) of the same compound?
**A.** Its IC50 is 7.27 nM.

**Q.** And the IC50 (ABC-1)?
**A.** The IC50 was 3.02 nM.

**Q.** What about the IC50 (BV-173) of the same compound?
**A.** Its IC50 is 30.4 nM.

**Q.** And the IC50 (C8166)?
**A.** Its IC50 is 17.6 nM.

**Q.** What about the IC50 (CAL-33) of the same compound?
**A.** The IC50 was 5.02 nM.

**Q.** What about the IC50 (CAL-72) of the same compound?
**A.** Its IC50 is greater than 64 nM.

**Q.** And the IC50 (WM-115)?
**A.** The IC50 was greater than 64 nM.

**Q.** What about the IC50 (COLO-668) of the same compound?
**A.** The IC50 was 28.5 nM.
